Reference: patent US20250152585A1, “PHARMACEUTICAL COMPOUND” (Duke Street Bio Limited, priority 2022, published 2025)
Where two headings read alike, the source gives them in different places.

How the values were obtained:
[1] = target: T1, N-terminally FLAG-tagged PARP2 (amino acids 1-583) (Homo sapiens, UniProt Q9UGN5); experiment: PARP2 probe displacement HTRF assay; type: binding; settings: binned Kd
T1 construct: N-terminally FLAG-tagged PARP2 (amino acids 1-583)
Protocol: Data analysis was performed identical as for PARP1.

[2] = target: T2, full length N-terminally FLAG-tagged PARP1 (Homo sapiens, UniProt P09874); experiment: PARP1 probe displacement HTRF assay; settings: for Selectivity: PARP1 over PARP2, ratio Kd (PARP2)/Kd (PARP1); for Kd: binned Kd
[3] = target: T2, full length N-terminally FLAG-tagged PARP1; experiment: PARP1 biochemical DELFIA assay (auto-PARylation); parameters: recombinant full length human N-terminally FLAG-tagged PARP1
[4] = read-out: PARP1 HTRF, PARP1 probe displacement HTRF
[5] = binned IC50, PARP1 biochemical DELFIA assay
[6] = PARP1 HTRF, PARP1 probe displacement HTRF
[7] = read-out: PARP1 HTRF, probe displacement HTRF
[8] = binned IC50, biochemical auto-PARylation assay

T2 sequence (P09874 whole entry): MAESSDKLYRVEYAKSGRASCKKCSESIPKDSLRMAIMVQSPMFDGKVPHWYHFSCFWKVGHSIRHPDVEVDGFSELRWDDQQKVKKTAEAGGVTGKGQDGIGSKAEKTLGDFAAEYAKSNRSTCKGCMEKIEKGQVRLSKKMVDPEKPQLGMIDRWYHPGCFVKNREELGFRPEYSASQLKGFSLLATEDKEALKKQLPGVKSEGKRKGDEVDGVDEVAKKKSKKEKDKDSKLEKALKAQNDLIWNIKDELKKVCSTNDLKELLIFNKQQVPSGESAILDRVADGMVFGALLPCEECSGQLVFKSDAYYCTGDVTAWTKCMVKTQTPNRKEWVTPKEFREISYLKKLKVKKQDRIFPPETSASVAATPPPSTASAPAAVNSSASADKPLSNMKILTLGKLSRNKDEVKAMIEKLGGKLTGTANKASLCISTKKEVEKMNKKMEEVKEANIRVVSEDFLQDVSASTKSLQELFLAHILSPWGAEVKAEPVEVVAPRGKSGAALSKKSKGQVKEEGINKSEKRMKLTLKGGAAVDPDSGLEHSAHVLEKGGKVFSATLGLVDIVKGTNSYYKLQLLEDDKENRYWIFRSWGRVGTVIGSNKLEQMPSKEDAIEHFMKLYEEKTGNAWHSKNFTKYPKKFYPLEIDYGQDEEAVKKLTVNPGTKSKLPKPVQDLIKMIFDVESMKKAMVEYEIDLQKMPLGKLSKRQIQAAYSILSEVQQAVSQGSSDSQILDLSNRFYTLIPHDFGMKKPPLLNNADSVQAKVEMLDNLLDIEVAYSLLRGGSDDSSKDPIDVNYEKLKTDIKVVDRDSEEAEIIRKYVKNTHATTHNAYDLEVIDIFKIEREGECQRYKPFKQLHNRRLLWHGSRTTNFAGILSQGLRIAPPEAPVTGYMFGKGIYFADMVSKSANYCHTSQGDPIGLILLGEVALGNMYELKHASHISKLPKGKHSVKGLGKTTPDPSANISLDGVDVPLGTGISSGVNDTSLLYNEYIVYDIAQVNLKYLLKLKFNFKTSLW
T1 sequence (Q9UGN5 whole entry, the tested form may be a part): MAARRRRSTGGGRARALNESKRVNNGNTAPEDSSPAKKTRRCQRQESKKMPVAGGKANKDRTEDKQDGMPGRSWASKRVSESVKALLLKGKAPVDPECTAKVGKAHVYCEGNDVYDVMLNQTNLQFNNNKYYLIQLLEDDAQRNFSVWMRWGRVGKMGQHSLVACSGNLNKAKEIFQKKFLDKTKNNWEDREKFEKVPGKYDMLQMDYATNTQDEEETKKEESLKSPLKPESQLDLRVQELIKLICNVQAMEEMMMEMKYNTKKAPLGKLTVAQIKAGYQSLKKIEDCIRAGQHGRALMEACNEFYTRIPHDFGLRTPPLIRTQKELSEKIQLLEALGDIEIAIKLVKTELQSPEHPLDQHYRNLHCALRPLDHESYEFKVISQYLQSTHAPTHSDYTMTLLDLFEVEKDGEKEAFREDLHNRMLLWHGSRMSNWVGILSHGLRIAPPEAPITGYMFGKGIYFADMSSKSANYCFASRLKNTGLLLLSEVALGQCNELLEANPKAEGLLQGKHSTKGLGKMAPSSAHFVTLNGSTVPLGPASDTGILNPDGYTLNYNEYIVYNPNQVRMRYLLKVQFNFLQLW

| Kd ([1]; PARP2 probe displacement HTRF) [nM] | Kd [2, 4] [nM] | IC50 [3, 5] [nM] | Kd [2, 6] [nM] | Kd ([1]; probe displacement HTRF) [nM] | Kd [2, 7] [nM] | IC50 [3, 8] [nM] | Kd ([2]; PARP1 HTRF, probe displacement HTRF) [nM] | Structure (SMILES) | Selectivity ([2]; probe displacement HTRF) |
| --- | --- | --- | --- | --- | --- | --- | --- | --- | --- |
| > 10000 | 100 to 1000 | 100 to 1000 |  |  |  |  |  | CNC(=O)c1ccc(N2CCC(N3CCC(c4nc5ccc(C(F)(F)F)cc5c(=O)[nH]4)C3)CC2)cn1 (single isomer, unassigned) [Compound 161a] | − (− indicates a value of less than 10) |
| 10 to 100 |  | < 10 | < 10 |  |  |  |  | CNC(=O)c1ccc(N2CCC(N3CCC(c4cc5ccc(F)cc5c(=O)[nH]4)C3)CC2)cn1 (racemic) [Compound 154rac, 5-(4-(3-(7-fluoro-1-oxo-1,2-dihydroisoquinolin-3-yl)pyrrolidin-1-yl)piperidin-1-yl)-N-methylpicolinamide] | + (+ indicates a value of 10 to less than 50) |
|  |  |  |  | 1000 to 10000 | 100 to 1000 | 10 to 100 |  | CCc1ccc(C2CCN(C3CCN(c4ccc(C#N)cc4)CC3)C2)[nH]c1=O (single isomer, unassigned) [Compound 317a] | − (− indicates a value of less than 10) |
|  |  |  |  | 1000 to 10000 | 10 to 100 | 10 to 100 |  | CNC(=O)c1ccc(N2CCC(N3CCC(c4nc5c(C(F)(F)F)cn(C)c5c(=O)[nH]4)C3)CC2)cn1 (racemic) [Compound 288rac] | +++ (+++ indicate a value of at least 100) |
| > 10000 |  | < 10 | < 10 |  |  |  |  | CNC(=O)c1ccc(N2CCC(C(=O)N3CCC(c4nc5ccccc5c(=O)[nH]4)CC3)CC2)cn1 [Compound 36] | +++ (+++ indicate a value of at least 100) |
| 100 to 1000 | < 10 | < 10 |  |  |  |  |  | CNC(=O)c1ccc(N2CCC(N3CCC(c4nc5c(c(=O)[nH]4)CCCN5)C3)CC2)cn1 (single isomer, unassigned) [Compound 214b] | +++ (+++ indicate a value of at least 100) |
| 100 to 1000 |  | < 10 | < 10 |  |  |  |  | CNC(=O)c1ccc(N2CCC(N3CCC(Cc4nc5ccccc5c(=O)[nH]4)CC3)CC2)cn1 [Compound 54, N-methyl-5-(4-{4-[(4-oxo-3H-quinazolin-2-yl)methyl]piperidin-1-yl}piperidin-1-yl)pyridine-2-carboxamide] | +++ (+++ indicate a value of at least 100) |
| 1000 to 10000 | < 10 | < 10 |  |  |  |  |  | NC(=O)c1ccc(N2CCC(N3CCC(c4nc5ccccc5c(=O)[nH]4)C3)CC2)cn1 (single isomer, unassigned) [Compound 123b] | +++ (+++ indicate a value of at least 100) |
| > 10000 | 100 to 1000 | 100 to 1000 |  |  |  |  |  | CNC(=O)c1ccc(N2CCC(N3CCC(c4nc5onc(C)c5c(=O)[nH]4)C3)CC2)cn1 (single isomer, unassigned) [Compound 149a] | + (+ indicates a value of 10 to less than 50) |
|  |  |  |  | 100 to 1000 | < 10 | < 10 |  | CNC(=O)c1cc(N2CCC(N3CCC(c4cc5ccccc5c(=O)[nH]4)C3)CC2)cs1 (racemic) [Compound 296rac] | + (+ indicates a value of 10 to less than 50) |

More lines, now with the values behind:

| Structure (SMILES) | Kd ([1]; PARP2 probe displacement HTRF) [nM] | Kd [2, 4] [nM] | IC50 [3, 5] [nM] | Kd [2, 6] [nM] | Kd ([1]; probe displacement HTRF) [nM] | Kd [2, 7] [nM] | IC50 [3, 8] [nM] | Kd ([2]; PARP1 HTRF, probe displacement HTRF) [nM] | Selectivity ([2]; probe displacement HTRF) |
| --- | --- | --- | --- | --- | --- | --- | --- | --- | --- |
| CCCc1ccc(C2CCN(C3CCN(c4ccc(C(=O)NC)nc4)CC3)C2)[nH]c1=O (single isomer, unassigned) [Compound 261b] |  |  |  |  | 1000 to 10000 | < 10 | < 10 |  | +++ (+++ indicate a value of at least 100) |
| CNC(=O)c1ccc(N2CCC(N3CCC(c4cc5nccc(N)c5c(=O)[nH]4)C3)CC2)cn1 (racemic) [Compound 200rac] | > 10000 | 10 to 100 | 10 to 100 |  |  |  |  |  | +++ (+++ indicate a value of at least 100) |
| CNC(=O)c1ccc(N2CCC(N3CCC(c4[nH]c(=O)c5ccccc5c4C(F)(F)F)C3)CC2)cn1 (single isomer, unassigned) [Compound 404b] |  |  |  |  | 1000 to 10000 | < 10 | < 10 |  | +++ (+++ indicate a value of at least 100) |
| CNC(=O)c1ccc(N2CCC(N3CCC(c4cc5ccc(F)cc5c(=O)[nH]4)C3)CC2)c(C)n1 (single isomer, unassigned) [Compound 196b] | 1000 to 10000 | < 10 | < 10 |  |  |  |  |  | +++ (+++ indicate a value of at least 100) |
| CNC(=O)c1ccc(N2CCC(N3CCC(c4nc5ccccc5c(=O)[nH]4)C3)CC2)c(C(F)(F)F)n1 (single isomer, unassigned) [Compound 139a] | 1000 to 10000 | < 10 | < 10 |  |  |  |  |  | +++ (+++ indicate a value of at least 100) |
| CCc1ccc(C2CCN(C3CCN(c4ccc(OC(F)F)nc4)CC3)C2)[nH]c1=O (single isomer, unassigned) [Compound 382b] |  |  |  |  | 100 to 1000 | < 10 | < 10 |  | +++ (+++ indicate a value of at least 100) |
| CNC(=O)c1cc(F)c(N2CCC(N3CCC(c4cc5ccc(F)cc5c(=O)[nH]4)C3)CC2)cn1 (racemic) [Compound 235rac] |  |  |  |  | 10 to 100 | < 10 | < 10 |  | + (+ indicates a value of 10 to less than 50) |
| CNC(=O)c1ccc(N2CCC(N3CCC(c4cc5ccc(F)cc5c(=O)[nH]4)C3)CC2)cc1F (single isomer, unassigned) [Compound 270a] |  |  |  |  | 10 to 100 | 10 to 100 | 10 to 100 |  | − (− indicates a value of less than 10) |
| CNC(=O)c1cc(C)c(N2CCC(N3CCC(c4nc5ccccc5c(=O)[nH]4)C3)CC2)c(C)n1 (single isomer, unassigned) [Compound 224a] |  |  |  |  | 1000 to 10000 | 1000 to 10000 | 100 to 1000 |  | − (− indicates a value of less than 10) |
| CNC(=O)c1ccc(N2CCC(N3CCC(c4[nH]c(=O)c5c(F)cccc5c4F)C3)CC2)c(F)n1 (single isomer, unassigned) [Compound 402b] |  |  |  |  | 10 to 100 | < 10 | < 10 |  | +++ (+++ indicate a value of at least 100) |
| CCc1ccc(C2CCN(C3CCN(c4ccc(C(=O)NCC(F)(F)F)nc4F)CC3)C2)[nH]c1=O (single isomer, unassigned) [Compound 285b] |  |  |  |  | > 10000 | < 10 | < 10 |  | +++ (+++ indicate a value of at least 100) |
| CNC(=O)c1ccc(N2CCC(N3CCCC(c4nc5cnccc5c(=O)[nH]4)C3)CC2)cn1 (single isomer, unassigned) [Compound 106a] | > 10000 | 100 to 1000 | 100 to 1000 |  |  |  |  |  | + (+ indicates a value of 10 to less than 50) |
| CNC(=O)c1ncc(N2CCC(N3CCC(c4cc5ccc(F)cc5c(=O)[nH]4)C3)CC2)c(C)n1 (single isomer, unassigned) [Compound 265a] |  |  |  |  | 1000 to 10000 | < 10 | < 10 |  | +++ (+++ indicate a value of at least 100) |
| CNC(=O)c1ccc(N2CCC(N3CCC(c4nc5c(F)cccc5c(=O)[nH]4)C3)CC2)cn1 (single isomer, unassigned) [Compound 121a] | 100 to 1000 | 10 to 100 | 10 to 100 |  |  |  |  |  | + (+ indicates a value of 10 to less than 50) |
| CNC(=O)c1ccc(N2CCC(N3CCC(c4cc5c(F)ccc(F)c5c(=O)[nH]4)C3)CC2)cn1 (single isomer, unassigned) [Compound 180a] | 1000 to 10000 | < 10 | < 10 |  |  |  |  |  | +++ (+++ indicate a value of at least 100) |
| CNC(=O)c1ccc(N2CCC(N3CCC(c4nc(C)cc(=O)[nH]4)C3)CC2)cn1 (single isomer, unassigned) [Compound 97b] | > 10000 | 100 to 1000 | 100 to 1000 |  |  |  |  |  | − (− indicates a value of less than 10) |
| CNC(=O)c1ccc(N2CCC(N3CC4(c5nc6c(c(=O)[nH]5)COCC6)CC3C4)CC2)cn1 [Compound 373] |  |  |  |  | 1000 to 10000 |  | < 10 | < 10 | +++ (+++ indicate a value of at least 100) |
| CNC(=O)c1ccc(N2CCC(N3CCC(c4cc5cccc(F)c5c(=O)[nH]4)C3)CC2)c(Cl)n1 (single isomer, unassigned) [Compound 183a] | 1000 to 10000 | < 10 | < 10 |  |  |  |  |  | +++ (+++ indicate a value of at least 100) |
| CCc1cnc(C2CCCN(C3CCN(c4ccc(C(=O)NC)nc4)CC3)C2)[nH]c1=O (single isomer, unassigned) [Compound 31b] | > 10000 | 10 to 100 | 10 to 100 |  |  |  |  |  | +++ (+++ indicate a value of at least 100) |
| CNC(=O)c1ccc(N2CCC(N3CCC(c4nc5ccccc5c(=O)[nH]4)C3)CC2)nc1 (single isomer, unassigned) [Compound 46a] | 1000 to 10000 | 10 to 100 | < 10 |  |  |  |  |  | +++ (+++ indicate a value of at least 100) |
| CCNC(=O)c1ccc(N2CCC(N3CCC(c4nc5ccccc5c(=O)[nH]4)C3)CC2)cn1 (single isomer, unassigned) [Compound 111b] | 100 to 1000 | < 10 | < 10 |  |  |  |  |  | +++ (+++ indicate a value of at least 100) |
| CNC(=O)c1ccc(N2CCC(N3CCC(c4cc5c(F)cccc5c(=O)[nH]4)C3)CC2)cn1 (single isomer, unassigned) [Compound 172b] | 10 to 100 | < 10 | < 10 |  |  |  |  |  | +++ (+++ indicate a value of at least 100) |
